According to ChEMBL document CHEMBL1148985, “27-norlanostane glycosides from the bulbs of Muscari paradoxum” (J Nat Prod, 2004):
Active and inactive are the calls of the source. The rule behind the calls is not given here.

What follows are molecules tested on HSC-2 (assay: Cytotoxicity against human HSC2 cells assessed as cell viability up to 100 uM after 24 hrs). Conditions: not given.
Format: functional, cell-based

| Structure (SMILES) | Activity |
| --- | --- |
| CCC(=O)[C@H]1C[C@@H](C)[C@]2(CC(=O)[C@@]3(C)C4=C(CC[C@@]32C)[C@@]2(C)CC[C@H](O[C@@H]3O[C@H](CO[C@@H]5OC[C@H](O)[C@H](O)[C@H]5O[C@@H]5O[C@H](CO)[C@@H](O)[C@H](O)[C@H]5O[C@@H]5OC[C@](O)(CO)[C@H]5O)[C@@H](O)[C@H](O)[C@H]3O)[C@](C)(CO)[C@@H]2CC4)O1 | inactive |
| CCC(=O)[C@H]1C[C@@H](C)[C@]2(CC(=O)[C@@]3(C)C4=C(CC[C@@]32C)[C@@]2(C)CC[C@H](O[C@@H]3O[C@H](CO[C@@H]5OC[C@H](O)[C@H](O)[C@H]5O[C@@H]5O[C@H](CO)[C@@H](O)[C@H](O)[C@H]5O[C@@H]5O[C@@H](C)[C@H](O)[C@@H](O)[C@H]5O)[C@@H](O)[C@H](O)[C@H]3O)[C@](C)(CO)[C@@H]2CC4)O1 | inactive |
| CCC(=O)[C@H]1C[C@@H](C)[C@]2(CC(=O)[C@@]3(C)C4=C(CC[C@@]32C)[C@@]2(C)CC[C@H](O[C@@H]3O[C@H](CO[C@@H]5OC[C@H](O)[C@H](O)[C@H]5O[C@@H]5O[C@H](CO)[C@@H](O)[C@H](O[C@@H]6OC[C@H](O)[C@H](O)[C@H]6O[C@@H]6OC[C@@H](O)[C@H](O)[C@H]6O)[C@H]5O[C@@H]5O[C@@H](C)[C@H](O)[C@@H](O)[C@H]5O)[C@@H](O)[C@H](O)[C@H]3O)[C@](C)(CO)[C@@H]2CC4)O1 | inactive |

What follows are molecules tested on HSC-2 (assay: Cytotoxicity against human HSC2 cells assessed as cell viability after 24 hrs). Conditions: HSC-2, 24 h.
Format: functional, cell-based

| Structure (SMILES) | IC50 [µM] |
| --- | --- |
| CCC(=O)[C@@H]1C[C@@H](C)[C@]2(CC[C@@]3(C)C4=C(CC[C@@]32C)[C@@]2(C)CC[C@H](O[C@@H]3O[C@H](CO[C@@H]5OC[C@H](O)[C@H](O)[C@H]5O[C@@H]5O[C@H](CO)[C@@H](O)[C@H](O[C@@H]6OC[C@H](O)[C@H](O)[C@H]6O[C@@H]6OC[C@@H](O)[C@H](O)[C@H]6O)[C@H]5O[C@@H]5O[C@@H](C)[C@H](O)[C@@H](O)[C@H]5O)[C@@H](O)[C@H](O)[C@H]3O)[C@](C)(CO)[C@@H]2CC4)O1 | 7.3 |
| CCC(=O)[C@@H]1C[C@@H](C)[C@]2(CC(=O)[C@@]3(C)C4=C(CC[C@@]32C)[C@@]2(C)CC[C@H](O[C@@H]3O[C@H](CO[C@@H]5OC[C@H](O)[C@H](O)[C@H]5O[C@@H]5O[C@H](CO)[C@@H](O)[C@H](O)[C@H]5O[C@@H]5O[C@@H](C)[C@H](O)[C@@H](O)[C@H]5O)[C@@H](O)[C@H](O)[C@H]3O)[C@](C)(CO)[C@@H]2CC4)O1 | 63 |
| CCC(=O)[C@@H]1C[C@@H](C)[C@]2(CC(=O)[C@@]3(C)C4=C(CC[C@@]32C)[C@@]2(C)CC[C@H](O[C@@H]3O[C@H](CO[C@@H]5OC[C@H](O)[C@H](O)[C@H]5O[C@@H]5O[C@H](CO)[C@@H](O)[C@H](O)[C@H]5O[C@@H]5OC[C@](O)(CO)[C@H]5O)[C@@H](O)[C@H](O)[C@H]3O)[C@](C)(CO)[C@@H]2CC4)O1 | 6.2 |
| CCC(=O)[C@@H]1C[C@@H](C)[C@]2(CC(=O)[C@@]3(C)C4=C(CC[C@@]32C)[C@@]2(C)CC[C@H](O[C@@H]3O[C@H](CO[C@@H]5OC[C@H](O)[C@H](O)[C@H]5O[C@@H]5O[C@H](CO)[C@@H](O)[C@H](O[C@@H]6OC[C@H](O)[C@H](O)[C@H]6O[C@@H]6OC[C@@H](O)[C@H](O)[C@H]6O)[C@H]5O[C@@H]5O[C@@H](C)[C@H](O)[C@@H](O)[C@H]5O)[C@@H](O)[C@H](O)[C@H]3O)[C@](C)(CO)[C@@H]2CC4)O1 | 19 |
| CCC(=O)[C@@H]1C[C@@H](C)[C@]2(CC[C@@]3(C)C4=C(CC[C@@]32C)[C@@]2(C)CC[C@H](O[C@@H]3O[C@H](CO[C@@H]5OC[C@H](O)[C@H](O)[C@H]5O[C@@H]5O[C@H](CO)[C@@H](O)[C@H](O)[C@H]5O[C@@H]5O[C@@H](C)[C@H](O)[C@@H](O)[C@H]5O)[C@@H](O)[C@H](O)[C@H]3O)[C@](C)(CO)[C@@H]2CC4)O1 | 32 |
